{"source": "patent US12447171B2", "about": "(CELGENE QUANTICEL RESEARCH, INC., priority 2019, dated 2025)", "tested_on": "stearoyl-CoA desaturase (SCD)", "assay": "SCD expression (RNAseq, real-time PCR) in MV4-11 cells", "format": "cell-based", "procedure": "After treatment, cells were recovered, washed once in PBS, and flash frozen as cell pellets. Cell pellets were sent to Canopy Biosciences for RNA extraction and library preparation and sequencing. RNA was extracted using the Qiagen RNeasy Mini Kit according to manufacturer's instructions. A modified protocol was used to preserve miRNA species. Total RNA Seq libraries were prepared using 200 ng of total RNA and the NEBNext Ultra II Directional Library prep kit. rRNA depletion was performed using an RNase-H based method (New England Biolabs, Ipswich, MA). MCL1 RNA levels in other cell lines were quantified by RNASeq using standard methods.\nLibraries were multiplexed and sequenced using Illumina HiSeq. All gene counts were then imported into the R/Bioconductor package EdgeR and TMM normalization size factors were calculated to adjust for samples for differences in library size. Ribosomal genes and genes not expressed in the smallest group size minus one samples greater than one count-per-million were excluded from further analysis. Differential expression analysis was then performed to analyze for differences between conditions and the results were filtered for only those genes with Benjamini-Hochberg false-discovery rate adjusted p-values less than or equal to 0.05. Global perturbations in known Gene Ontology (GO) terms and KEGG pathways were detected using the R/Bioconductor package GAGE to test for changes in expression of the reported log 2 fold-changes reported by Limma in each term versus the background log 2 fold-changes of all genes found outside the respective term. […]\nAt this time, cells were recovered and RNA was extracted using Qiagen RNeasy kit according to manufacturer's instructions. […] Validated Taqman probes and Taqman Fast Advanced Master Mix was used with Viia 7 Real-Time PCR System (Invitrogen/ThermoFisher Scientific, Waltham, MA) to quantify transcripts of ATF3, SCD, and 18S mRNA."}
{"molecule": "Nc1ncn([C@@H]2O[C@H](CO)[C@@H](O)[C@H]2O)c(=O)n1", "note": "[5-azacytidine, 4-amino-1-B-D-ribofuranosyl-1,3,5-triazin-2(1H)-one]", "values": [{"measurement": "SCD expression (real-time PCR)", "setting": "MV4-11, 3 μM 5-azacytidine", "value": "decreased rapidly within 24 hours"}, {"measurement": "SCD expression (real-time PCR)", "setting": "MV4-11, low concentrations of 5-azacytidine, 24 hours", "value": "not affected"}, {"measurement": "SCD expression decrease", "setting": "RNAseq, MV4-11, 1 μM, 48 hours", "value": 2.5, "unit": "fold"}]}
